Data on 3 compounds can be found in patent US20150025077A1 (COYOTE PHARMACEUTICALS, INC., priority 2012, published 2015).

Like-named read-outs stand apart in the source and are kept apart here.

Data set [1] in a line: Kp (ratio of AUCbrain to AUCplasma) of GGA in rat. The format is in vivo. The note with it: brain, 4 h, 6 h, 8 h, and 10 h time points.
Data set [2] is described as follows: In-vivo PK of GGA oral formulations in rat. Conditions: plasma; for bioavailability: read-out: oral bioavailability (% F); for half-life: read-out: t½ (converted). How it is done:
PK Parameters were calculated from noncompartmental analysis (NCA) model using WinNonlin software and the linear/log trapezoidal method.
Parameters that requires 1z: Terminal Half-Life (t1/2)=ln(2)/lz. Calculated using Lambda_z method to find best fit. If necessary, the concentration-time points were manually selected for use in the calculation. Bolded-italicized concentrations indicate points used for calculation.

For data set [3] the following is noted: Katsuno et al., Proc. Natl. Acad. Sci. USA 2003; cited from earlier work.
Another data set concerns HSP70. Briefly: HSP70 expression in neuro2A cells, western blot. In kind it is cell-based, mouse. Conditions: for HSP70 western signal (absence of compounds = 1.00): 48 hours, GGTI-298. How it is done: Differentiation was induced and cells incubated with geranylgeranyl transferase I inhibitor, GGTI-298. Cells were harvested and lysates were prepared and analyzed by western blot for HSP70 and HSP90. Western signals in the absence of the compounds were normalized as 1.00.
Background: A western blot detects proteins with antibodies after separation by electrophoresis.

Data set [4] concerns Rat primary motor neurons. The experiment in a line: Axon extension of rat primary motor neurons. Conditions: 72 hrs; read-out: EC50 (cells extending axons). In kind it is cell-based. How it is done: Rat primary motor neurons were isolated from embryonic spinal cords in accordance with the method of Henderson et al.; J Cohen and G P Wilkin (ed.), Neural Cell Culture, (1995) p69-81 which is herein incorporated by reference in its entirety. Briefly, spinal cords were dissected from day 15 embryo (E15) and incubated in a trypsin solution, and followed by DNase treatment to release spinal cord cells from tissue fragments. The cell suspension was centrifuged to remove tissue fragments. Then motor neurons were enriched by density gradient centrifugation.
Motor neurons were cultured in serum-free neurobasal medium containing insulin, forskolin, 3-isobutyl-1-methylxanthine, neurotrophic factors, Bovine serum albumin, selenium, transferrin, putrescine, progesterone and B27 supplement in tissue culture plate coated with poly-ornithine and laminin.
Rat primary motor neurons were prepared and cultured as described in Example 13. […] The cells extending axons were counted in five different fields for each treatment after 72 hrs. Percentage of positive cells relative to total cells in the same magnification field was calculated and the results were expressed as means+/−standard deviations, n=5.

In a further data set the test system is Neuro2A cells. The experiment in a line: Neuro2A cells that extended neurites, with GGTI-298 (Example 18). Conditions: 0.1-1 μM; vehicle 0.0-0.20. In kind it is cell-based. The text has this: After differentiation was induced, cells that extended neurites were counted.
A further data set relates to Sprague-Dawley rats. The experiment in a line: Kainic acid induced neurodegeneration and seizure behaviors in rats (Examples 20, 21). The format is in vivo, rat. The note with it: oral. The text has this:
Seizure behaviors were observed and scored (Ref. R. J. Racine, Modification of seizure activity by electrical stimulation: II. Motor seizure, Electroencephalogr. Clin. […] Modifications were made for the methods). Brain tissues of rats were sectioned on histology slides, and neurons in hippocampus tissues were stained by Nissl. Neurons in dentate gyrus tissues damaged by Kainic acid were quantified. The Memantine composition used in comparison refers to a commercially available NMDA receptor […]. […] Seizure behaviors were observed and scored (Ref. R. J. Racine, Modification of seizure activity by electrical stimulation: II. Motor seizure, Electroencephalogr. Clin. […] Modifications were made for the methods). Brain tissues of rats were sectioned on histology slides, and neurons in hippocampus tissues were stained by Nissl. Neurons damaged by Kainic acid and behavior scores were quantified.

Another data set deals with Rap1. The experiment in a line: Prenylation of Rap1 in Neuro2A cells, western blotting. In kind it is cell-based, mouse. Conditions: 100 nM; with GGTI-298; percentage of control (GGTI only). The essentials: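 Mouse Neuro2A cells in DMEM/10% FBS were treated with compound for 24 h, then GGTI-298 was added for a further 24 h. Un-prenylated and total Rap1 were quantified by western blot, normalized to GAPDH; the un-prenylated/total ratio was expressed as percent of GGTI-only control, mean of two biological repeats.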

The test system of data set [5] is Mouse Neuro2A neuroblastoma cells. The experiment in a line: Neuro2A cells with neurites after GGTI-298 (Example 16). In kind it is cell-based. The note with it: 10 μM. As for the experimental part:
Mouse Neuro2A neuroblastoma cells were cultured in DMEM supplemented with 10% FBS for 24 hrs. […] Then differentiation was induced by retinoic acid in DMEM supplemented with 2% FBS. The cell culture was incubated with a Geranylgeranyl Transferase inhibitor, GGTI-298. After 24 hrs incubation, cells with neurites were counted.

Data set [6] relates to Murine neuro2A neuroblastoma cells. Briefly: Neurite outgrowth of neuro2A cells with GGTI-298 (Example 30). Conditions: for Protection % / Median Counts (cells with neurite outgrowth) / ratio of counts relative to no inhibition: CNS-102/CNS-103 experiment; for Median Counts (cells with neurite outgrowth): no inhibition 60.3, PBS 18.5. The format is cell-based, mouse. How it is done: Differentiation was induced and cells incubated with geranylgeranyl transferase I inhibitor, GGTI-298. After 24 h digital images were taken and neurite outgrowth was quantified. The comparisons of the neuroprotective effect of these three compounds are shown below.
The estimated mean log10 counts, from five replicate wells for each treatment group were calculated by PROC GLM in SAS assuming a pooled estimate of variation.
The estimated mean log 10 counts from five replicate wells for each treatment group were calculated by PROC GLM in SAS assuming a pooled estimate of variation.
Differences in mean log(counts) between treatments for each concentration were calculated using PROC GLM in SAS. The p-value given is for the comparison of the estimated difference to zero, the expected difference value for no treatment effect. The anti-log of the differences represent the estimated ratio of counts (relative effect on inhibition) and are tabulated below along with the lower and upper 95% confidence intervals.

Data set [7] deals with Mouse neuroblastoma Neuro2A cells. The experiment in a line: Rescue of amyloid-beta oligomer induced cytotoxicity in Neuro 2a cells (CellTiter-Glo). The note with it: mouse/rat NG108-15, N2a, A-beta (O) together with compound 48 hr, normalized to A-beta (O) treated only, read-out: % viability vs. untreated. In kind it is cell-based. As for the experimental part: Preparation of amyloid-beta oligomer (A-beta (O)): Synthetic wild type A-beta (1-42) was purchased from American Peptide, and first dissolved with hexafluoroisopropanol (HFIP), then dried in the blowing tissue culture hood overnight to form a film in the eppendorf tube. The A-beta peptide film was first resuspended with DMSO to a concentration of 5 mM, further diluted with DMEM containing N2 supplement (Invitrogen) to achieve a concentration of 100 μM, and then sonicated in room temperature water bath for 10 minutes. The 100 μM peptide solution was then incubated at 4° C. for 24 hr and thoroughly vortexed before applied to cells.
Mouse neuroblastoma Neuro2A cells were plated in 96-well plates and cultured in DMEM supplemented with 10% FBS for 24 hr. […] At the end of incubation, cells were harvested and subjected to viability assay using CellTiter-Glo Luminescent Cell Viability Assay Kit (Promega). […] Compound ID numbers in table refer to structures in Table 1 and Table 2.
(In general: In ATP-based viability assays light output follows the ATP content of the culture.)

Setting [8] is: GGA in 3% Hydroxypropyl Cellulose (Mn=10,262) aqueous suspension.
[9] abbreviates: GGA in 3% Hydroxypropyl Cellulose (Mn=100,000) aqueous suspension.
Setting [10] is: GGA in 5% Gum Arabic aqueous suspension.
Setting [11] is: GGA in 5% Gum Arabic+3% Hydroxypropyl Cellulose (Mn=10,262) aqueous suspension.
Where [12] appears, read: GGA in 5% Gum Arabic+3% Hydroxypropyl Cellulose (Mn=100,000) aqueous suspension.

Consider `CC(=O)CC/C=C(\C)CC/C=C(\C)CC/C=C(\C)CCC=C(C)C` [GGA, geranylgeranyl acetone], for which, in data set [1], the Kp fell in the range of 0.08 to 0.11. Further, the Tmax is 9.33 h in data set [2] (setting [8]); 8.66 h in data set [2] (setting [9]); 7.33 h in [2] (setting [10]); 13.3 h in data set [2] (setting [11]); 5.33 h in [2] (setting [12]). Also, the bioavailability in data set [2] (setting [8]) was 35%; in data set [2] (setting [9]) it was 41.8%; in data set [2] (setting [10]), 37.3%; in data set [2] (setting [11]) it was 36.5%; in data set [2] (setting [12]), 58%. For the same compound, the half-life in data set [2] (setting [8]) is 18.7 h; in [2] (setting [9]), 3.13 h; in [2] (setting [10]), 3.43 h; in data set [2] (setting [11]), 6.73 h; in data set [2] (setting [12]) it was 10.2 h. For the same compound, in data set [3], the “concentration of GGA required to exert a cytoprotective effect” value is given as “more than 600 mg per kg per day”.

Turning to `CC(=O)CC/C=C(/C)CC/C=C(\C)CC/C=C(\C)CCC=C(C)C` [CNS-103], the “HSP70 western signal (absence of compounds = 1.00)” value in the data set with HSP70 (100 nM) came out at 1.00; in the data set with HSP70 (1 μM), 1.07; in the data set with HSP70 (10 μM) it was 0.99. Further, in the data set with HSP70 (various concentrations), the “induction of HSP70 expression” value is recorded as “failed to induce expression of HSP70”. In addition, in data set [4], the EC50 is 9.49 nM. Moreover, the “Mean of cell numbers (cells that extended neurites)” value with Neuro2A cells is reported as 0.20-0.45 Arbitrary units. Moreover, the “Mean of Hippocampus CA3 Neurons Damaged” value in the data set on Sprague-Dawley rats (12 mg/Kg rat) stood at 8.16 Arbitrary units; with Sprague-Dawley rats (25 mg/Kg rat) it was 10.64 Arbitrary units. The “unprenylated/total RAP1 (%)” value in the data set with Rap1 amounted to 96%. Moreover, the “Mean of cell numbers (cells with neurites)” value in data set [5] worked out at 0.195 Arbitrary units. Moreover, the Protection % in data set [6] (10 nM) was 19.6%; in data set [6] (100 nM), 25.8%; in data set [6] (1000 nM), 24.4%; in [6] (10000 nM), −5.3%. The “Median Counts (cells with neurite outgrowth)” value in [6] (10 nM) stood at 26.7; in [6] (100 nM), 29.3; in [6] (1000 nM), 28.7; in data set [6] (10000 nM), 16.3. Also, the “ratio of counts relative to no inhibition” value was 0.443 in [6] (10 nM), 0.486 in [6] (100 nM), 0.476 in data set [6] (1000 nM) and 0.270 in data set [6] (10000 nM). Moreover, in data set [6] (CNS-102/CNS-103 experiment (FIG. 4B)), the maximum protection is about 26%.

Take `CC(C)=CCC/C(C)=C/CC/C(C)=C/CCC(=O)C(C)C` [Compound 101]: the viability at 1 µM in data set [7] was found to be 126%.

As usually defined, the Kp is the ratio of the level in a tissue or fluid to that in plasma or blood. A word on the Tmax: it is the time from dosing to the highest level. One may read the bioavailability as the share of a dose that reaches the circulation, judged against a reference dose that is usually intravenous. A word on the EC50: it is the concentration that produces a half-maximal response. One may read the viability as a read-out of living cells in per cent, often relative to untreated cells.
